Assay [1] addresses VIM-1 (Pseudomonas aeruginosa, UniProt A0A0F7KYQ8). As to the kind of experiment: Enzyme activity: determination of IC50, fluorescence assay with CCF2-FA substrate. The format is biochemical. Conditions: VIM-1 enzyme 30 pM, CCF2-FA 1.25 μM, 2 hours at 25° C.; read-out: VIM1 IC50. The gist of the method: (§1)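 Enzyme (1 pM NDM-1, 2 pM IMP-1, 30 pM VIM-1) incubated with inhibitor (20 to 0.00063 μM) and 1.25 μM CCF2-FA in 100 mM KH2PO4 pH 7, 0.005% Tween-20, 10 μM ZnSO4, 2 h at 25 °C. Fluorescence read at 460 nm (ex 405 nm); IC50 by 4-parameter fit.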

Assay [2] concerns the target NDM-1 (Klebsiella pneumoniae, UniProt C7C422). Described as above. The format is biochemical. Conditions: NDM-1 enzyme 1 pM, CCF2-FA 1.25 μM, 2 hours at 25° C.; read-out: NDM1 IC50. Summed up: as §1
For assay [3], the target named is IMP-1 (Serratia marcescens, UniProt P52699). The description is as above. It is filed as biochemical. Conditions: IMP-1 enzyme 2 pM, CCF2-FA 1.25 μM, 2 hours at 25° C.; read-out: IMP1 IC50. Summed up:
as §1

The test system of assay [4] is Escherichia coli expressing NDM-1 (CLB30016). The assay can be described thus: Antibiotic potentiation activity: synergistic concentration (MITC95) with imipenem, growth by OD600. Conditions: E. coli CLB30016 (NDM-1), 95% inhibition of growth. It is filed as cell-based. The gist of the method: (§2)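 Strains grown overnight at 35° C, resuspended in saline, diluted 1:100 into 1.1×CAMHB; imipenem at 1 μg/ml or 4 μg/ml with test compound 200 μM to 0.195 μM. Incubated 22 hours to 24 hours at 35° C, OD600 read; MITC95 is lowest compound concentration inhibiting 95% of growth.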

The subject of assay [5] is Serratia marcescens expressing IMP-1 (CL5741). The description is as above. It is filed as cell-based. Conditions: S. marcescens CL5741 (IMP-1), 95% inhibition of growth. Summed up:
as §2

Assay [6] has as its system Klebsiella pneumoniae expressing VIM-1 (IHMA599644). Described as above. The format is cell-based. Conditions: K. pneumoniae IHMA599644 (VIM-1), 95% inhibition of growth. The gist of the method: as §2

The structures appear in SMILES notation. pIC50: −log10 of the molar value.

Sequence of IMP-1 (P52699 19-246, looked up, species assumed): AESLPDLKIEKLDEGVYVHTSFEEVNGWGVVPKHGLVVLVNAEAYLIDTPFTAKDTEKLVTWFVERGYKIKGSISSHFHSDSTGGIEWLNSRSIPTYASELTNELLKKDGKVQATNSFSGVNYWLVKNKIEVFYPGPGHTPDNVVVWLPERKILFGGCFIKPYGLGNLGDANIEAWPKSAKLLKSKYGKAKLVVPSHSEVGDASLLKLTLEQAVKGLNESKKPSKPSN
Sequence of NDM-1 (C7C422 29-270, looked up, species assumed): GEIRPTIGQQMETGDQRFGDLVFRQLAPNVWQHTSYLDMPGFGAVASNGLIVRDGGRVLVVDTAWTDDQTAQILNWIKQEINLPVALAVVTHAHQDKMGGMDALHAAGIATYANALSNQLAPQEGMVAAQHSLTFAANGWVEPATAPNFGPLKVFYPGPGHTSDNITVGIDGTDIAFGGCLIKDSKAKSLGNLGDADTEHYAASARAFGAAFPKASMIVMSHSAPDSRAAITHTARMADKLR

For `CCC[C@H](C(=O)O)[C@H](Cc1ccccc1-c1ccc(N)nc1)c1nn[nH]n1` [Example 398, (2S)-2-[(1S)-2-[2-(6-aminopyridin-3-yl)phenyl]-1-(2H-tetrazol-5-yl)ethyl]pentanoic acid], the figures for the pIC50 in assay [1], in assay [2] and in assay [3] were 8.00, 8.80 and 5.96, respectively. Moreover, in assay [4], the “NDM1 EC30016 MITC95” value worked out at 3.1 µM. For the same compound, the “IMP1 SM5741 MITC95” value in assay [5] worked out at 75 µM. Also, in assay [6], the “VIM1 KP599644 MITC95” value was 25 µM.

With `CCC[C@H](C(=O)O)[C@H](Cc1ccccc1-c1cccc(C(N)=O)c1)c1nn[nH]n1` [Example 399, (2S)-2-[(1S)-2-(3′-carbamoylbiphenyl-2-yl)-1-(2H-tetrazol-5-yl)ethyl]pentanoic acid], the pIC50 – broadly, −log10 of the IC50, conventionally taken in molar units – was 8.80 in assay [1], 8.85 in assay [2] and 6.37 in assay [3]. The “NDM1 EC30016 MITC95” value in assay [4] amounted to 6.2 µM. The “IMP1 SM5741 MITC95” value in assay [5] was 25 µM. Besides, the “VIM1 KP599644 MITC95” value in assay [6] turned out to be 25 µM.

Consider `CC(C)C[C@H](C(=O)O)[C@H](Cc1ccc(Oc2cccc(CN)c2)nc1)c1nn[nH]n1` [Example 400, (2S)-2-[(1S)-2-{6-[3-(aminomethyl)phenoxy]pyridin-3-yl}-1-(2H-tetrazol-5-yl)ethyl]-4-methylpentanoic acid], for which the pIC50 was 7.38 in assay [1], 6.47 in assay [2] and 6.12 in assay [3]. Also, the “NDM1 EC30016 MITC95” value in assay [4] is 12.5 µM. Further, in assay [5], the “IMP1 SM5741 MITC95” value came to 25 µM. Besides, in assay [6], the “VIM1 KP599644 MITC95” value is 50 µM.

Consider `CCC[C@H](C(=O)O)[C@H](Cc1ccccc1-c1ccc(S(N)(=O)=O)cc1)c1nn[nH]n1` [Example 401, (2S)-2-[(1S)-2-(4′-sulfamoylbiphenyl-2-yl)-1-(2H-tetrazol-5-yl)ethyl]pentanoic acid], for which the pIC50 in assay [1] was 7.89; in assay [2], 8.41; in assay [3], 5.72. Also, the “NDM1 EC30016 MITC95” value in assay [4] was found to be 9.4 µM. Moreover, the “IMP1 SM5741 MITC95” value in assay [5] was found to be 50 µM. In addition, in assay [6], the “VIM1 KP599644 MITC95” value was found to be 50 µM.

Regarding `CCC[C@H](C(=O)O)[C@H](Cc1ccccc1-c1ccc(NS(C)(=O)=O)cc1)c1nn[nH]n1` [Example 402, (2S)-2-[(1S)-2-{4′-[(methylsulfonyl)amino]biphenyl-2-yl}-1-(2H-tetrazol-5-yl)ethyl]pentanoic acid], the pIC50 in assay [1] was 8.82; in assay [2], 10.02; in assay [3] it was 6.64. Besides, the “NDM1 EC30016 MITC95” value in assay [4] is 3.1 µM. In addition, in assay [5], the “IMP1 SM5741 MITC95” value stood at 12.5 µM. Moreover, the “VIM1 KP599644 MITC95” value in assay [6] amounted to 25 µM.

Take `CCC[C@H](C(=O)O)[C@H](Cc1ccccc1-c1ccc(CO)cc1)c1nn[nH]n1` [Example 403, (2S)-2-[(1S)-2-[4′-(hydroxymethyl)biphen-yl-2-yl]-1-(2H-tetrazol-5-yl)ethyl]pentanoic acid]: the pIC50 is 8.48 in assay [1], 8.62 in assay [2] and 6.26 in assay [3]. In addition, in assay [4], the “NDM1 EC30016 MITC95” value worked out at 9.4 µM. Further, the “IMP1 SM5741 MITC95” value in assay [5] was determined as 18.8 µM. Besides, in assay [6], the “VIM1 KP599644 MITC95” value was found to be 50 µM.

Take `CC(C[C@H](C(=O)O)[C@H](Cc1ccc(N)nc1)c1nnn[nH]1)c1ccccc1` (stereo partly drawn) [Example 404, (2S)-2-((S)-2-(6-aminopyridin-3-yl)-1-(1H-tetrazol-5-yl)ethyl)-4-phenylpentanoic acid]: the pIC50 in assay [1] is 7.66; in assay [2], 6.64; in assay [3] it was 6.21. Moreover, in assay [4], the “NDM1 EC30016 MITC95” value came to 18.75 µM. Further, the “IMP1 SM5741 MITC95” value in assay [5] was determined as 75 µM. In assay [6], the “VIM1 KP599644 MITC95” value turned out to be 75 µM.

Turning to `CCC[C@H](C(=O)O)[C@H](CCc1ccc(N)nc1)c1nnn[nH]1` [Example 405, (2S,3S)-5-(6-aminopyridin-3-yl)-2-propyl-3-(1H-tetrazol-5-yl)pentanoic acid], the pIC50 in assay [1] is 7.40; in assay [2], 5.55; in assay [3], 4.83. Further, in assay [4], the “NDM1 EC30016 MITC95” value came to 12.5 µM. For the same compound, in assay [5], the “IMP1 SM5741 MITC95” value was 200 µM. Also, the “VIM1 KP599644 MITC95” value in assay [6] came to 12.5 µM.

With `CCC[C@H](C(=O)O)[C@H](CCCc1ccc(N)nc1)c1nnn[nH]1` [Example 406, (2S,3S)-6-(6-aminopyridin-3-yl)-2-propyl-3-(1H-tetrazol-5-yl)hexanoic acid], the pIC50 is 7.83 in assay [1], 6.37 in assay [2] and 6.09 in assay [3]. The “NDM1 EC30016 MITC95” value in assay [4] was 6.25 µM. Also, in assay [5], the “IMP1 SM5741 MITC95” value came to 37.5 µM. For the same compound, the “VIM1 KP599644 MITC95” value in assay [6] was found to be 6.25 µM.

Consider `CC(C)C[C@H](C(=O)O)[C@H](Cc1cc(Cl)nc(NCCO)c1)c1nnn[nH]1` [Example 407], for which the results for the pIC50 in assay [1], in assay [2] and in assay [3] were 8.65, 7.46 and 6.03, respectively. Further, in assay [4], the “NDM1 EC30016 MITC95” value stood at 18.75 µM. The “IMP1 SM5741 MITC95” value in assay [5] turned out to be 75 µM. For the same compound, the “VIM1 KP599644 MITC95” value in assay [6] amounted to 50 µM.

On to `CCC[C@H](C(=O)O)[C@H](Cc1ccc(C2CCNCC2)nc1)c1nnn[nH]1` [Example 408, (S)-2-((S)-2-(6-(piperidin-4-yl)pyridin-3-yl)-1-(1H-tetrazol-5-yl)ethyl)pentanoic acid], for which the figures for the pIC50 in assay [1], in assay [2] and in assay [3] were 8.19, 6.60 and 5.46, respectively. Besides, in assay [4], the “NDM1 EC30016 MITC95” value came to 7.813 µM. Besides, in assay [5], the “IMP1 SM5741 MITC95” value came to 75 µM. Further, in assay [6], the “VIM1 KP599644 MITC95” value came to 25 µM.

With `CCC[C@H](C(=O)O)[C@H](Cc1ccc(C2CCNC2)nc1)c1nnn[nH]1` (stereo partly drawn) [Example 409, (2S)-2-((1S)-2-(6-(pyrrolidin-3-yl)pyridin-3-yl)-1-(1H-tetrazol-5-yl)ethyl)pentanoic acid], the pIC50 in assay [1] was 7.85; in assay [2], 6.09; in assay [3], 4.70. Besides, the “NDM1 EC30016 MITC95” value in assay [4] turned out to be 12.5 µM. In addition, the “IMP1 SM5741 MITC95” value in assay [5] came out at 200 µM. Moreover, the “VIM1 KP599644 MITC95” value in assay [6] is 25 µM.

Turning to `CCC[C@H](C(=O)O)[C@H](Cc1ccc(C2CCN(C=N)C2)nc1)c1nnn[nH]1` (stereo partly drawn) [Example 410, (2S)-2-((1S)-2-(6-(1-(iminomethyl)pyrrolidin-3-yl)pyridin-3-yl)-1-(1H-tetrazol-5-yl)ethyl)pentanoic acid], the results for the pIC50 in assay [1], in assay [2] and in assay [3] were 8.21, 6.38 and 5.22, respectively. Also, the “NDM1 EC30016 MITC95” value in assay [4] turned out to be 7.813 µM. Further, in assay [5], the “IMP1 SM5741 MITC95” value was 75 µM. In assay [6], the “VIM1 KP599644 MITC95” value stood at 25 µM.

For `CCC[C@H](C(=O)O)[C@H](Cc1ccc(C2CCN(C(=N)N)C2)nc1)c1nnn[nH]1` (stereo partly drawn) [Example 411, (2S)-2-((1S)-2-(6-(1-carbamimidoylpyrrolidin-3-yl)pyridin-3-yl)-1-(1H-tetrazol-5-yl)ethyl)pentanoic acid], the pIC50 in assay [1] is 8.53; in assay [2], 6.75; in assay [3], 5.56. The “NDM1 EC30016 MITC95” value in assay [4] turned out to be 4.688 µM. In addition, the “IMP1 SM5741 MITC95” value in assay [5] stood at 50 µM. For the same compound, in assay [6], the “VIM1 KP599644 MITC95” value is 12.5 µM.

As to `CCC[C@H](C(=O)O)[C@H](Cc1ccc(C2CCNCC2)cc1)c1nnn[nH]1` [Example 412, (S)-2-((S)-2-(4-(piperidin-4-yl)phenyl)-1-(1H-tetrazol-5-yl)ethyl)pentanoic acid], the pIC50 was 8.35 in assay [1], 7.15 in assay [2] and 6.56 in assay [3]. Moreover, the “NDM1 EC30016 MITC95” value in assay [4] is 9.375 µM. For the same compound, the “IMP1 SM5741 MITC95” value in assay [5] was 9.375 µM. In assay [6], the “VIM1 KP599644 MITC95” value is 12.5 µM.

As to `CCC[C@H](C(=O)O)[C@H](Cc1ccc(C2CCNC2)cc1)c1nnn[nH]1` (stereo partly drawn) [Example 413, (2S)-2-((1S)-2-(4-(pyrrolidin-3-yl)phenyl)-1-(1H-tetrazol-5-yl)ethyl)pentanoic acid], the pIC50 in assay [1] was 8.34; in assay [2] it was 6.84; in assay [3], 5.96. The “NDM1 EC30016 MITC95” value in assay [4] was 6.25 µM. Moreover, the “IMP1 SM5741 MITC95” value in assay [5] came out at 25 µM. Besides, the “VIM1 KP599644 MITC95” value in assay [6] was 12.5 µM.

As for `CCC[C@H](C(=O)O)[C@H](Cc1ccc(C2CCN(C(=N)N)C2)cc1)c1nnn[nH]1` (stereo partly drawn) [Example 414, (2S)-2-((1S)-2-(4-(1-carbamimidoylpyrrolidin-3-yl)phenyl)-1-(1H-tetrazol-5-yl)ethyl)pentanoic acid], the pIC50 in assay [1] was 8.82; in assay [2], 7.16; in assay [3] it was 6.67. In addition, the “NDM1 EC30016 MITC95” value in assay [4] turned out to be 4.688 µM. Besides, the “IMP1 SM5741 MITC95” value in assay [5] amounted to 9.375 µM. The “VIM1 KP599644 MITC95” value in assay [6] is 12.5 µM.

As for `CCC[C@H](C(=O)O)[C@H](Cc1ccc(C2CCN(C=N)C2)cc1)c1nnn[nH]1` (stereo partly drawn) [Example 415, (2S)-2-((1S)-2-(4-(1-(iminomethyl)pyrrolidin-3-yl)phenyl)-1-(1H-tetrazol-5-yl)ethyl)pentanoic acid], the pIC50 is 8.36 in assay [1], 6.92 in assay [2] and 6.41 in assay [3]. The “NDM1 EC30016 MITC95” value in assay [4] turned out to be 9.375 µM. In assay [5], the “IMP1 SM5741 MITC95” value came out at 12.5 µM. The “VIM1 KP599644 MITC95” value in assay [6] amounted to 18.75 µM.

For the origin of these results see patent US9839642B2, “Beta-tetrazolyl-propionic acids as metallo-beta-lactamase inhibitors” (priority 2014, dated 2017).
